Assay results as given in ChEMBL document CHEMBL5241058, “Pyrazole-based analogs as potential antibacterial agents against methicillin-resistance staphylococcus aureus (MRSA) and its SAR elucidation” (Eur J Med Chem, 2021).
Values after ≈ are worked out from the molar mass of the structure shown.

Experiments:
Type in all cases: functional
Staphylococcus aureus [1] = experiment: Antimicrobial activity against Methicillin-resistant Staphylococcus aureus ATCC 43300 assessed as bacterial growth inhibition by microdilution method
Staphylococcus aureus [2] = experiment: Antimicrobial activity against Methicillin-resistant Staphylococcus aureus assessed as bacterial growth inhibition
Staphylococcus aureus [3] = experiment: Antimicrobial activity against Methicillin-resistant Staphylococcus aureus ATCC 3167 assessed as bacterial growth inhibition
Staphylococcus aureus [4] = experiment: Antimicrobial activity against Methicillin-resistant Staphylococcus aureus assessed as bacterial growth inhibition incubated for 24 to 48 hrs by microdilution method; conditions: time 24-48 hrs
Staphylococcus aureus [5] = experiment: Antimicrobial activity against vancomycin intermediate-resistant Staphylococcus aureus assessed as bacterial growth inhibition incubated for 24 hrs by microdilution method
Staphylococcus aureus [6] = experiment: Antimicrobial activity against Methicillin-resistant Staphylococcus aureus ATCC 33599 assessed as bacterial growth inhibition
Staphylococcus aureus [7] = experiment: Antimicrobial activity against Methicillin-resistant Staphylococcus aureus CCARM 3506 assessed as bacterial growth inhibition incubated for 24 hrs by ELISA assay
Staphylococcus aureus [8] = experiment: Antimicrobial activity against Staphylococcus aureus MTCC 442 assessed as bacterial growth inhibition incubated for 24 to 48 hrs; conditions: time 24-48 hrs
Staphylococcus aureus [9] = experiment: Antimicrobial activity against Staphylococcus aureus MTCC 96 assessed as bacterial growth inhibition incubated for 24 to 48 hrs; conditions: time 24-48 hrs
Staphylococcus aureus [10] = experiment: Antibiofilm activity against Methicillin-resistant Staphylococcus aureus USA 300 relative to control
Pseudomonas aeruginosa = experiment: Antimicrobial activity against Pseudomonas aeruginosa ATCC 27853 assessed as bacterial growth inhibition incubated for 18 hrs by microdilution method
Klebsiella pneumoniae = experiment: Antimicrobial activity against Klebsiella pneumoniae ATCC 314588 assessed as bacterial growth inhibition incubated for 18 hrs by microdilution method
[11] = test system: Salmonella enterica subsp. enterica; experiment: Antimicrobial activity against Salmonella typhimurium […] assessed as bacterial growth inhibition incubated for 18 hrs by microdilution method
Escherichia coli = experiment: Antimicrobial activity against Escherichia coli ATCC 8739 assessed as bacterial growth inhibition incubated for 18 hrs by microdilution method
Staphylococcus aureus [12] = experiment: Antimicrobial activity against Methicillin-resistant Staphylococcus aureus ATCC 43300 assessed as bacterial growth inhibition incubated for 24 hrs by microdilution method; conditions: ATCC43300

Compound O=C1S/C(=C\c2cn(-c3ccccc3)nc2-c2ccc(Cl)cc2Cl)C(=O)N1CCCn1ccc2ccccc21 has an MIC (Staphylococcus aureus [1]) of 6.25 mg/L.

CC1(C)S[C@@H]2[C@H](NC(=O)[C@H](N)c3ccccc3)C(=O)N2[C@H]1C(=O)O [AMPICILLIN] was tested, and the MIC (Staphylococcus aureus [2]) was 62 mg/L (≈ 177 µM).

With COc1cc(/C=C/c2cc(/C=C/c3ccc(OCC(=O)N[C@@H](C)c4ccccc4)c(OC)c3)[nH]n2)ccc1OCC(=O)N[C@@H](C)c1ccccc1 the MIC (Staphylococcus aureus [3]) was 10 µM (≈ 6.87 µg/mL).

With CC(=O)Nc1c(C(N)=O)cnn1-c1ccc([N+](=O)[O-])cc1[N+](=O)[O-] the MIC (Staphylococcus aureus [4]) was 99.4 mg/L (≈ 297 µM).

In the case of O=C(c1cc(C(F)(F)F)n[nH]1)c1ccc(Cl)cc1O, the MIC (Staphylococcus aureus [5]) is reported as under 0.125 mg/L.

NC(=O)c1cnn(-c2ccc([N+](=O)[O-])cc2[N+](=O)[O-])c1NC(=O)c1ccc(Br)cc1 was tested, and the MIC (Staphylococcus aureus [4]) was 29.4 mg/L (≈ 61.9 µM).

For O=C(O)c1ccc(-n2cc(/C=N/c3cccc(Cl)c3F)c(-c3ccc4ccccc4c3)n2)cc1, the MBC (Staphylococcus aureus [6]) was 12.5 mg/L (≈ 26.6 µM) and the MIC (Staphylococcus aureus [6]) was 0.78 mg/L (≈ 1.66 µM).

With Cc1nn(-c2ccc(Cl)cc2Cl)c(Oc2ccc3ccccc3c2)c1C1N=C(N)NC(NCCc2ccccc2)=N1 (stereo not given) the MIC (Staphylococcus aureus [7]) was 0.5 mg/L (≈ 0.855 µM).

O=C(/C=C/c1cccc(F)c1)N1N=C(c2ccncc2)OC1c1cn(-c2ccccc2)nc1-c1ccc(F)cc1 (stereo not given) was tested, and the MIC (Staphylococcus aureus [8]) was 25 mg/L (≈ 46.9 µM) and the MIC (Staphylococcus aureus [9]) was 25 mg/L (≈ 46.9 µM).

Compound CN[C@H](CC(C)C)C(=O)N[C@H]1C(=O)N[C@@H](CC(N)=O)C(=O)N[C@H]2C(=O)N[C@H]3C(=O)N[C@H](C(=O)N[C@H](C(=O)O)c4cc(O)cc(O)c4-c4cc3ccc4O)[C@H](O)c3ccc(c(Cl)c3)Oc3cc2cc(c3O[C@@H]2O[C@H](CO)[C@@H](O)[C@H](O)[C@H]2O[C@H]2C[C@](C)(N)[C@H](O)[C@H](C)O2)Oc2ccc(cc2Cl)[C@H]1O [VANCOMYCIN] has an MIC (Staphylococcus aureus [5]) of under 0.125 mg/L, an MBC (Staphylococcus aureus [6]) of 6.25 mg/L (≈ 4.31 µM) and an MIC (Staphylococcus aureus [6]) of 3.12 mg/L (≈ 2.16 µM). It also gave an Activity (Staphylococcus aureus [10]) of 18%.

With O=C(c1cc(C(F)(F)F)n[nH]1)c1cc(Br)ccc1O the MIC (Staphylococcus aureus [5]) was under 0.125 mg/L.

Compound Cc1nn(-c2ccc(Cl)cc2Cl)c(Oc2cccc(Cl)c2)c1C1N=C(N)NC(NCCc2ccccc2)=N1 (stereo not given) has an MIC (Staphylococcus aureus [7]) of 0.5 mg/L (≈ 0.879 µM).

With Clc1ccccc1-c1nn(-c2ccccc2)cc1-c1nc2ccccn2c1Cc1ccccc1 the MIC (Pseudomonas aeruginosa) was under 1 mg/L, the MIC (Klebsiella pneumoniae) was under 1 mg/L and the MIC [11] was under 1 mg/L. The MIC (Escherichia coli) was under 1 mg/L.

CC1=C(C(=O)O)N2C(=O)[C@@H](NC(=O)[C@H](N)c3ccccc3)[C@H]2SC1 [CEPHALEXIN ANHYDROUS] gave an MIC (Staphylococcus aureus [4]) of 72 mg/L (≈ 207 µM).

Compound Cc1nn(-c2ccc(Cl)cc2Cl)c(Oc2cccc(C(F)(F)F)c2)c1C1N=C(N)NC(NCCc2ccccc2)=N1 (stereo not given) has an MIC (Staphylococcus aureus [7]) of 0.5 mg/L (≈ 0.83 µM).

For CCn1ncc2c3c(C#N)c4ccccc4nc3ccc21, the MIC (Staphylococcus aureus [2]) was 3 mg/L (≈ 11 µM).

For NC(=O)c1cnn(-c2ccc([N+](=O)[O-])cc2[N+](=O)[O-])c1NC(=O)c1ccc(Cl)cc1, the MIC (Staphylococcus aureus [4]) was 39 mg/L (≈ 90.5 µM).

COc1cc(/C=C/c2cc(/C=C/c3ccc(OCC(=O)NC45CC6CC(CC4C6)C5)c(OC)c3)[nH]n2)ccc1OCC(=O)NC12CC3CC(CC1C3)C2 gave an MIC (Staphylococcus aureus [3]) of 10 µM (≈ 7.19 µg/mL).

Compound O=C1S/C(=C\c2cn(-c3ccccc3)nc2-c2ccc([N+](=O)[O-])cc2)C(=O)N1CCCn1ccc2ccccc21 has an MIC (Staphylococcus aureus [1]) of 12.5 mg/L.

With Oc1ccccc1-c1nn(-c2ccccc2)cc1-c1nc2ccccn2c1Cc1ccccc1 the MIC (Pseudomonas aeruginosa) was under 1 mg/L, the MIC (Klebsiella pneumoniae) was under 1 mg/L and the MIC [11] was under 1 mg/L. For the same compound, the MIC (Escherichia coli) was under 1 mg/L.

With CC(C)Cn1ncc2c3c(C#N)c4ccc(Br)cc4nc3ccc21 the MIC (Staphylococcus aureus [2]) was 6 mg/L (≈ 15.8 µM).

Work on Cn1ncc2c3c(C#N)c4ccccc4nc3ccc21 yielded an MIC (Staphylococcus aureus [2]) of 6 mg/L (≈ 23.2 µM).

Compound Cc1ccc(C(=O)Nc2c(C(N)=O)cnn2-c2ccc([N+](=O)[O-])cc2[N+](=O)[O-])cc1 has an MIC (Staphylococcus aureus [4]) of 42 mg/L (≈ 102 µM).

With O=C1S/C(=C\c2cn(-c3ccccc3)nc2-c2ccc(Cl)cc2)C(=O)N1CCCn1ccc2ccccc21 the MIC (Staphylococcus aureus [1]) was over 50 mg/L.

Compound O=C(/C=C/c1ccc(F)cc1)N1N=C(c2ccncc2)OC1c1cn(-c2ccccc2)nc1-c1ccc(F)cc1 (stereo not given) has an MIC (Staphylococcus aureus [8]) of 6.25 mg/L (≈ 11.7 µM) and an MIC (Staphylococcus aureus [9]) of 6.25 mg/L (≈ 11.7 µM).

O=C(O)c1ccc(-n2cc(/C=N/c3ccc(C(F)(F)F)cc3)c(-c3ccc4ccccc4c3)n2)cc1 was tested, and the MBC (Staphylococcus aureus [6]) was 25 mg/L (≈ 51.5 µM) and the MIC (Staphylococcus aureus [6]) was 0.78 mg/L (≈ 1.61 µM).

For O=C1S/C(=C\c2cn(-c3ccccc3)nc2-c2cccc([N+](=O)[O-])c2)C(=O)N1CCCn1ccc2ccccc21, the MIC (Staphylococcus aureus [1]) was 50 mg/L.

COc1cc(Cc2cnc(N)nc2N)cc(OC)c1OC [TRIMETHOPRIM] was tested, and the MIC (Staphylococcus aureus [7]) was 4 mg/L (≈ 13.8 µM).

Cc1nn(-c2ccc(Br)cc2)c2c1C(C(=O)O)CC=C(C(=O)O)N2 (stereo not given) gave an MIC (Staphylococcus aureus [12]) of over 500 mg/L.

Compound O=C(N[C@H](CO)[C@H](O)c1ccc([N+](=O)[O-])cc1)C(Cl)Cl [CHLORAMPHENICOL] has an MIC (Staphylococcus aureus [8]) of 50 mg/L (≈ 155 µM), an MIC (Staphylococcus aureus [9]) of 50 mg/L (≈ 155 µM) and an MIC (Staphylococcus aureus [1]) of 50 mg/L.

Work on Cc1nn(-c2ccccc2)c2c1C(C(=O)O)CC=C(C(=O)O)N2 (stereo not given) yielded an MIC (Staphylococcus aureus [12]) of over 500 mg/L.

With Cc1cc(O)c(C(=O)c2cc(C(F)(F)F)n[nH]2)cc1Cl the MIC (Staphylococcus aureus [5]) was under 0.125 mg/L.

Cc1nn(-c2ccccc2Cl)c2c1C(C(=O)O)CC=C(C(=O)O)N2 (stereo not given) gave an MIC (Staphylococcus aureus [12]) of over 500 mg/L.

NC(=O)c1cnn(-c2ccc([N+](=O)[O-])cc2[N+](=O)[O-])c1NC(=O)c1ccccc1 gave an MIC (Staphylococcus aureus [4]) of 75.3 mg/L (≈ 190 µM).

In the case of Cc1nn(-c2ccc(Cl)cc2Cl)c(Oc2ccc(Cl)cc2)c1C1N=C(N)NC(NCCc2ccccc2)=N1 (stereo not given), the MIC (Staphylococcus aureus [7]) is reported as 0.5 mg/L (≈ 0.879 µM).
